Like-named read-outs stand apart in the source and are kept apart here.
How the values were obtained:
MAPKAPK2 (MK-2) = MAPKAPK2 (MK-2) (Homo sapiens, UniProt P49137); experiment: Determination of MK-2 IC50 (HSP-peptide phosphorylation, anion exchange resin capture assay); format: biochemical
Summary of the method: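 MAPKAPK2, preactivated by p38α with 0.25 mM ATP for 1 h at 30° C, used at 15 nM to phosphorylate HSP-peptide with 0.03 mM ATP plus [γ33P]ATP, pH 7.5, 2% DMSO, 30 min at 30° C. Labelled peptide counted after anion-exchange resin capture; IC50 from six ten-fold dilutions, triplicate.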

MK-3 = MK-3 (Homo sapiens, UniProt Q16644); experiment: MK-3 inhibition IC50 (similar method to MK-2, with appropriate modifications); format: biochemical
MK-3, sequence (Q16644 whole entry, species assumed): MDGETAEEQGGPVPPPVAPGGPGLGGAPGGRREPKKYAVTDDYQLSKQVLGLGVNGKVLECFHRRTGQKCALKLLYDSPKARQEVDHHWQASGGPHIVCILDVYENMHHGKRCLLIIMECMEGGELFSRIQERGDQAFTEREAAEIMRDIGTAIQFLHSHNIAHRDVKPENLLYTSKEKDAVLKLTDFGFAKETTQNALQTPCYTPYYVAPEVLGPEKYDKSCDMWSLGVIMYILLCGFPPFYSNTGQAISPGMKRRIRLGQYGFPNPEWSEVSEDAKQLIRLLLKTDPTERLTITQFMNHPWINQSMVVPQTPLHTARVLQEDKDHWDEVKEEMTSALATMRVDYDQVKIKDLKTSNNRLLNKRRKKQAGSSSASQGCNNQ
Description: In practice, the selectivity of a cyclic pyrazole MK-2 inhibitor varies depending upon the condition under which the test is performed and on the inhibitors being tested. However, for the purposes of this specification, the selectivity of a cyclic pyrazole MK-2 inhibitor inhibitor can be measured as a ratio of the in vitro or in vivo IC50 value for inhibition of MK-3, divided by the IC50 value for inhibition of MK-2 (IC50 MK-3/IC50 MK-2). […] The MK-2 or MK-3 inhibiting activity of any of the compounds described herein can be determined by any one of several methods that are well known to those having skill in the art of enzyme activity testing. […] A similar method, with appropriate modifications, Can be used to measure MK-3 inhibitory activity. In addition, the efficacy of one of the present MK-2 inhibiting compounds in therapeutic applications can be determined by testing for inhibition of TNFα production in cell culture and in animal model assays.

[1] = Table 2, pyrazolylpyrazole MK-2 inhibitors, read-out: MK-2 Avg. IC50
[2] = Table 2, pyrazolylpyrazole MK-2 inhibitors, read-out: MK-3 Avg. IC50
[3] = Table 1, phenoxypyrazole MK-2 inhibitors, read-out: MK-2 Avg, IC50
[4] = Table 1, phenoxypyrazole MK-2 inhibitors, read-out: MK-3 Avg. IC50
[5] = Table 5, other cyclic pyrazole MK-2 inhibiting compounds, read-out: MK-2 Avg. IC50
[6] = Table 5, other cyclic pyrazole MK-2 inhibiting compounds, read-out: MK-3 Avg. IC50

MAPKAPK2 (MK-2), sequence (P49137 whole entry, species assumed): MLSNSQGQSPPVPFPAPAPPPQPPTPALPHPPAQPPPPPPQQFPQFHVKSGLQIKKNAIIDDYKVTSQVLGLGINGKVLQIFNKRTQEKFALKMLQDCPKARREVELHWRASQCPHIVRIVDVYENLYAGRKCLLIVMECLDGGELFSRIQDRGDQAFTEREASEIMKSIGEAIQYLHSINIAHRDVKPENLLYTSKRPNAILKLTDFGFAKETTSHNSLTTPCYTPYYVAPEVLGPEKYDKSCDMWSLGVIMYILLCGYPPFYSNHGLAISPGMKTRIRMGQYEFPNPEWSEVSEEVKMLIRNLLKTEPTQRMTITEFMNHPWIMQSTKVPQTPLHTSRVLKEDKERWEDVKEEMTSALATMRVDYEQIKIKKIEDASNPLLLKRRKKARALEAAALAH

| Compound | IC50 (MAPKAPK2 (MK-2); read-out: MK-2 Avg. IC50) | IC50 (MK-3; read-out: MK-3 Avg. IC50) | IC50 (MK-3; [2]) | other results |
| --- | --- | --- | --- | --- |
| CC(C)(C)OC(=O)NCCn1nc2c(c1C(=O)O)CCc1c-2cnn1C(c1ccccc1)(c1ccccc1)c1ccccc1 [Example 38] |  |  | ≥ 200 µM | IC50 (MAPKAPK2 (MK-2); [1]): 139 µM |
| NC(=O)c1nn(Cc2ccccc2)c2c1CCc1[nH]ncc1-2 [Example 34] |  |  | ≥ 200 µM | IC50 (MAPKAPK2 (MK-2); [1]): 120 µM |
| COc1cc2c(cc1OC)-c1n[nH]c(C(=O)NN)c1CC2 [Example 170] |  |  |  | IC50 (MAPKAPK2 (MK-2); [3]): > 200 µM; IC50 (MK-3; [4]): > 200 µM |
| O=C1NCCn2nc3c(c21)CCc1cnc(-c2ccc(O)cc2)cc1-3 [Example 19] | 0.0867 µM | 0.861 µM |  |  |
| NCCCn1nc2c(c1C(N)=O)CCc1cnc(-c3cnc4ccccc4c3)cc1-2 [Example 51] | 0.473 µM | 9.21 µM |  |  |
| CS(=O)(=O)c1ccc(-n2nc(C(N)=O)c3c2-c2cn[nH]c2CC3)cc1 [Example 35] |  |  | ≥ 200 µM | IC50 (MAPKAPK2 (MK-2); [1]): 124 µM |
| COC(=O)c1[nH]nc2c1CCc1cc(OC)ccc1-2 [Example 182] |  |  |  | IC50 (MAPKAPK2 (MK-2); [3]): > 200 µM; IC50 (MK-3; [4]): > 200 µM |
| O=C1NCCn2nc3c(c21)CCc1[nH]ncc1-3 [Example 14] |  |  | 137 µM | IC50 (MAPKAPK2 (MK-2); [1]): 20 µM |
| COc1cc2c(cc1-c1ccccc1Cl)-c1nn(CCCNC(=O)OC(C)(C)C)c(C(=O)O)c1CC2 [Example 52] |  |  |  | IC50 (MAPKAPK2 (MK-2); [3]): 109 µM; IC50 (MK-3; [4]): > 200 µM |
| COc1cc2c(cc1-c1ccc([N+](=O)[O-])cc1)-c1nn(CCCNC(=O)OC(C)(C)C)c(C(=O)O)c1CC2 [Example 32] |  |  |  | IC50 (MAPKAPK2 (MK-2); [3]): 37.4 µM; IC50 (MK-3; [4]): 115 µM |
| O=C(O)c1c2c(nn1CCCO)-c1cn[nH]c1CC2 [Example 27] |  |  | ≥ 200 µM | IC50 (MAPKAPK2 (MK-2); [1]): 103 µM |
| NCCCn1nc2c(c1C(=O)O)CCc1cnc(-c3ccccc3)nc1-2 [Example 3] |  |  |  | IC50 (MAPKAPK2 (MK-2); Table 4, pyrimidylpyrazole MK-2 inhibitors, read-out: MK-2 Avg. IC50): 0.406 µM; IC50 (MK-3; Table 4, pyrimidylpyrazole MK-2 inhibitors, read-out: NK-3 Avg. IC50): 10.8 µM |
| COc1ccc2c(c1)CCc1c(C(=O)NCCCN(C)C)nn(-c3ccc(Cl)cc3)c1-2 [Example 161] |  |  |  | IC50 (MAPKAPK2 (MK-2); [3]): > 200 µM; IC50 (MK-3; [4]): > 200 µM |
| CCOCn1ncc2c1CCc1c-2n[nH]c1C(N)=O [Example 46] |  |  | 145 µM | IC50 (MAPKAPK2 (MK-2); [1]): ≥ 200 µM |
| COc1cccc(/C=C/c2cc3c(cn2)CCc2c-3nn3c2C(=O)NCC3)c1 [Example 5] |  |  |  | IC50 (MAPKAPK2 (MK-2); [5]): 0.328 µM; IC50 (MK-3; [6]): 11.8 µM |
| O=C(O)c1nn(-c2ccccc2)c2c1CCc1[nH]ncc1-2 [Example 71] |  |  | ≥ 200 µM | IC50 (MAPKAPK2 (MK-2); [1]): ≥ 200 µM |
| NC(=O)c1[nH]nc2c1CCc1[nH]ncc1-2 [Example 17] |  |  | 129 µM | IC50 (MAPKAPK2 (MK-2); [1]): 28.4 µM |
| O=C(NCCO)c1[nH]nc2c1CCc1cc(O)ccc1-2 [Example 73] |  |  |  | IC50 (MAPKAPK2 (MK-2); [3]): 184 µM; IC50 (MK-3; [4]): > 200 µM |
| O=C1NCCn2nc3c(c21)CCc1cnc(/C=C/c2cccc(O)c2)cc1-3 [Example 1] |  |  |  | IC50 (MAPKAPK2 (MK-2); [5]): 0.0211 µM; IC50 (MK-3; [6]): 3.62 µM |
| O=C(O)c1[nH]nc2c1CCc1[nH]ncc1-2 [Example 45] |  |  | ≥ 200 µM | IC50 (MAPKAPK2 (MK-2); [1]): 188 µM |
| CCOC(=O)c1nn(-c2ccccc2)c2c1CCc1[nH]ncc1-2 [Example 54] |  |  | ≥ 200 µM | IC50 (MAPKAPK2 (MK-2); MK-2 Avg. IC50 (uM), Table 2, pyrazolylpyrazole MK-2 inhibitors): ≥ 200 µM |
| NCCCn1nc2c(c1C(=O)O)CCc1cc(O)c(-c3cccc(N)c3)cc1-2 [Example 19] |  |  |  | IC50 (MAPKAPK2 (MK-2); [3]): 17.2 µM; IC50 (MK-3; [4]): 166 µM |
| COc1ccc(-c2cc3c(cn2)CCc2c-3nn3c2C(=O)NCCC3)cc1OC [Example 43] | 0.288 µM | 15.8 µM |  |  |

Second part, led by results:

| IC50 (MAPKAPK2 (MK-2); read-out: MK-2 Avg. IC50) | IC50 (MK-3; read-out: MK-3 Avg. IC50) | IC50 (MK-3; [2]) | Compound | other results |
| --- | --- | --- | --- | --- |
| 0.632 µM | 6.87 µM |  | COc1ccccc1-c1cc2c(cn1)CCc1c-2nn(CCCN)c1C(=O)O [Example 66] |  |
| 0.325 µM | 10.7 µM |  | O=C(O)c1c2c(nn1CCCNCCc1ccc(Br)cc1)-c1ccncc1CC2 [Example 46] |  |
| 3.01 µM | 174 µM |  | NCCCCn1nc2c(c1C(=O)O)CCc1cnccc1-2 [Example 113] |  |
| 0.207 µM | 8.57 µM |  | O=C(O)c1c2c(nn1CCCNCCCc1cccc(Cl)c1)-c1ccncc1CC2 [Example 35] |  |
| 16.1 µM | 40.4 µM |  | O=C1NCC(CCCNCCc2ccc(Cl)cc2)n2nc3c(c21)CCc1cnccc1-3 (stereo not shown) [Example 178] |  |
| 0.551 µM | 7.86 µM |  | O=C(O)c1c2c(nn1CCCNCCc1ccc(Cl)cc1)-c1ccncc1CC2 [Example 56] |  |
| 0.0786 µM | 1.73 µM |  | NCCCn1nc2c(c1C(=O)O)CCc1cnc(-c3ccc(F)c(F)c3)cc1-2 [Example 17] |  |
| 0.018 µM | 0.142 µM |  | NCCCn1nc2c(c1C(=O)O)CCc1cnc(-c3cccc([N+](=O)[O-])c3)cc1-2 [Example 2] |  |
| 0.22 µM | 10.3 µM |  | O=C(O)c1c2c(nn1CCCNCCCc1ccc(Br)cc1)-c1ccncc1CC2 [Example 38] |  |
